{"source": "patent US9872853B2", "about": "“2,3-dihydro-1H-indole compounds” (Eli Lilly and Company, priority 2016, dated 2018)", "key": {"Colon26 tumors": {"tested_on": "Colon26 tumors", "experiment": "Mouse syngeneic Colon26 model for colon cancer", "type": "in vivo, BALB/c mice", "method": "Grow the mouse BALB/c-derived Colon26 colon cancer cell line in RPMI 1640 medium supplemented with 10 mM HEPES, […] sodium pyruvate, and 10% fetal bovine serum. Harvest sub-confluent cells with trypsin and rinse twice with complete growth medium lacking serum. Initiate subcutaneous tumors by injecting 1×10^6 cells resuspended in HBSS in the rear flank of immune-competent BALB/c mice (Envigo, Indianapolis, Ind.). Six days after tumor implantation, randomize animals based on body weight and place into their respective treatment groups using the number of animals per group as indicated.\n(§1) Capture tumor size and body weight using Study Director. Estimate tumor volume (V) by using the formula: V=0.536×L×W^2 where L=larger measured diameter and W=smaller of the perpendicular diameter. Transform the tumor volume data to a log scale to equalize variance across time and treatment groups. Analyze the log volume data with a two-way repeated measures analysis of variance by time and treatment using the MIXED procedures in SAS software (Version 9.2). The correlation model for the repeated measures is Spatial Power. Compare treated groups to the control group at each time point. Use the MIXED procedure also separately for each treatment group to calculate adjusted means and standard errors at each time point. Both analyses account for the autocorrelation within each animal and for the loss of data that occurs when animals with large tumors are removed from the study early. Calculate relative changes in tumor volume (% T/C) using the tumor volume measurements taken nearest to the last day of dosing with Example 1A, using the formula % T/C=100×ΔT/ΔC, where T=mean tumor volume of the compound treated group, ΔT=mean tumor volume of the compound treated group minus the mean tumor volume on the baseline day, C=mean tumor volume of the control (vehicle) group, and ΔC=mean tumor volume of the control group minus the mean tumor volume on the baseline day. If ΔT<0, then a tumor regression value is calculated instead of % T/C whereby % Regression=100×ΔT/Tinitial such that Tinitial=mean tumor volume on the baseline day.\n(§2) Assess antitumor efficacy of Example 1A and LY3300054 alone, or in combination by measuring tumor volume by three dimensional caliper measurements twice a week during the course of the study. Measure body weight twice weekly during the course of the study, as a general indicator of tolerability.\n(§3) Formulations for Example 1A and LY3300054: Formulate Example 1A on a weekly basis in 1% HEC/0.25% Tween 80/0.05% Antifoam and store at 4° C. Solublize LY3300054 in phosphate buffered saline and store at 4° C.\n(§4) Control group(s): For single agent efficacy studies, administer vehicle for Example 1A alone. For combination studies, administer both vehicles used for Example 1A and LY3300054 according to the same schedule for each compound, respectively. For monotherapy groups in combination efficacy studies, treat the animals with the desired compound and the vehicle for the compound not being dosed following the schedule for the non-dosed compound.\nTreat female BALB/c mice (n=10) bearing Colon26 tumors with Example 1A twice daily for 21 days by oral gavage at doses of 10, 50, and 100 mg/kg. Start administration of Example 1A six days after tumor implantation, and monitor tumor growth and body weight twice a week for the duration of the treatment period."}, "IDO1 activity in SKOV3": {"target": "T1, IDO1 activity in SKOV3 (Homo sapiens, UniProt P14902)", "T1 construct": "an ovarian cancer cell line that intrinsically expresses IDO1; host or cells: SKOV3 (in vitro); SKOV3X (Indiana University Research and Technology Center) as intraperitoneal xenograft tumours in athymic nude mice", "T1 sequence (P14902 whole entry)": "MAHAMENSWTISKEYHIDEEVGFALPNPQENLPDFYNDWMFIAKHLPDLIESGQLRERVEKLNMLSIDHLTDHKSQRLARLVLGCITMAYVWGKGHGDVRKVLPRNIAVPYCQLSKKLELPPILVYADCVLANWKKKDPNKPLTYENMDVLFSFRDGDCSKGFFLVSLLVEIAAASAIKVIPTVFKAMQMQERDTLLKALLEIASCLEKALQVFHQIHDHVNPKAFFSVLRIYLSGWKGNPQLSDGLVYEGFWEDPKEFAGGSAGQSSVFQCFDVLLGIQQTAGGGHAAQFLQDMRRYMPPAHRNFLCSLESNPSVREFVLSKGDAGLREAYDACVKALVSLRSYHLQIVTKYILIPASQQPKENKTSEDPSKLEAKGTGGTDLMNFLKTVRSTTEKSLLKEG", "experiment": "Kynurenine production assay (SKOV3)", "type": "cell-based", "details": "SKOV3 cells, 18 hours, MS measurement in media", "method": "The purpose of this assay is to evaluate the inhibition of the production of kynurenine, N-formyl-kynurenine and the depletion of tryptophan in IDO1 expressing cancer cells and assess whether compounds are overtly toxic to these cells. Exemplary compounds are tested for the inhibition of IDO1 activity in SKOV3 (ATCC, Cat# HTB-77), an ovarian cancer cell line that intrinsically expresses IDO1. Due to IDO1 expression, SKOV3 cells degrade tryptophan with the concomitant production of kynurenine and compounds are tested for their ability to inhibit the production of kynurenine, N-formyl-kynurenine and the depletion of tryptophan. Optionally, overt toxicity of compounds can be assessed by monitoring cell viability.\nPlate SKOV3 cells, an IDO1-expressing ovarian cancer cell line, at 20,000 cells per well in 100 μL of McCoys 5A media (Gibco, Cat#16600-082) supplemented with non-essential amino acids (Gibco, Cat#11140-050), 1 mM sodium pyruvate (Gibco, Cat#11360-070), and 10% fetal bovine serum, complete media, in a 96 well tissue culture plate (BD Biosciences). Then, incubate cells for 16 hours in a 37° C. incubator with 5% CO2. […] Optionally, return original plate(s) to the incubator for an additional 24 hours and measure the viability of cells by adding an equal volume of CELLTITER-GLO® (Promega) and measure luminescence in an PERKIN ELMER® EnVision plate reader. […]"}, "L55 tumors": {"tested_on": "L55 tumors", "experiment": "L55 humanized tumor model with hPBMC challenge", "type": "in vivo", "details": "for tolerability (body weight): with or without hPBMCs", "source_text": "Grow the human NSCLC cell line, L55, in RPMI 1640 medium supplemented with 10% fetal bovine serum. Harvest sub-confluent cells with trypsin and rinse twice with growth medium lacking serum. Initiate the growth of subcutaneous tumors by injecting 5×10^6 in a 1:1 mixture of HBSS and MATRIGEL® (BD Biosciences, Franklin Lakes, N.J.) in the rear flank of NOD.Cg-Prkdc^scidI12rg^tm1Wjl/SzJ mice more commonly known as NOD scid gamma chain knockout mice (NSG) mice (The Jackson Laboratory, Bar Harbour, Me.), which lack T cells, B cells, NK cells, and are deficient in cytokine signaling. When the mean tumor volume reaches approximately 200-300 mm^3, randomize the animals by tumor size and body weight and place into their respective treatment groups as indicated. After randomization, challenge tumor-bearing mice with PBS alone (no PBMCs) or with PBS containing 1×10^7 human PBMCs into the tail vein of recipients.\nas §1, §2, §3\nas §4, with “compound. […]” for “compound.”"}, "His6-IDO1": {"target": "T2, His6-IDO1 (Homo sapiens, UniProt P14902)", "T2 construct": "purchased Proteros PR-0278", "T2 sequence (P14902 whole entry)": "as above", "experiment": "Binding assay for IDO1: competition with a tritiated spy molecule", "details": "displacement of 50 nM tritiated spy molecule, four hours, room temperature", "method": "Specifically, this assay assesses the ability of test compounds to compete with a tritiated spy molecule 1-(2,4-difluorophenyl)-3-[[1-(3,4,5-tritritiobenzoyl)indolin-5-yl]methyl]urea and allows for the calculation of the binding affinity, IC50.\nCompetitive Binding of 1-(2,4-Difluorophenyl)-3-[[1-(3,4,5-tritritiobenzoyl)indolin-5-yl]methyl]urea to IDO1\nLoad 300 nM His6-IDO1 (Proteros, SwissProtID P14902, Cat# PR-0278, batch 19/59, 98 mg/mL in 25 mM MES pH 6.5, 150 mM KCl, purity >95%) diluted in DPBS to each well of nickel coated plate (Sigma, Cat#55563) and incubate overnight at 4° C. Remove unbound proteins by washing plate with 300 μL DPBS four times in BIOTEK® Microplate Washer. Add 100 μL of blocking buffer (0.05% TWEEN® 20/DPBS) per well and incubate for one hour at room temperature to reduce nonspecific binding. While blocking the plate, prepare 50 nM 1-(2,4-difluorophenyl)-3-[[1-(3,4,5-tritritiobenzoyl)indolin-5-yl]methyl]urea (Biocair, Cat# TRQ41455) by diluting in DPBS, and serially dilute unlabeled stock solution 2.5-fold in DMSO to generate an eleven point dilution curve. […] Quantitate total bound and nonspecific binding (NSB) of the 1-(2,4-difluorophenyl)-3-[[1-(3,4,5-tritritiobenzoyl)indolin-5-yl]methyl]urea ligand using a Trilux Microbeta Counter. […]"}}, "note": "Where “and” joins values, the source holds several entries; their conditions need not be identical. Identical values can stand only once. Like-named read-outs stand apart in the source and are kept apart here.", "data": [{"compound": "C[C@@H](NC(=O)c1ccc(F)cc1)c1ccc2c(c1)CCN2C(=O)C1CCOCC1", "note": "(single isomer, unassigned) [Example 1A]", "values": [{"measurement": "reduction in body weight compared to baseline", "setting": "Colon26 tumors; 10 mg/kg twice daily, day 20", "value": 2.5, "unit": "%"}, {"measurement": "reduction in body weight compared to baseline", "setting": "Colon26 tumors; 50 mg/kg twice daily, day 20", "value": 8, "unit": "%"}, {"measurement": "reduction in body weight compared to baseline", "setting": "Colon26 tumors; 100 mg/kg twice daily, day 20", "value": 2.5, "unit": "%"}, {"measurement": "tolerability (body weight changes)", "setting": "Colon26 tumors; 10, 50 and 100 mg/kg twice daily for 21 days, versus vehicle-treated mice", "value": "no significant tolerability issues"}, {"measurement": "tumor growth inhibition (statistics)", "setting": "Colon26 tumors; only 50 and 100 mg/kg doses, day 20", "value": "statistically (p<0.001) relevant growth inhibition"}, {"measurement": "IC50", "setting": "IDO1 activity in SKOV3; read-out: IC50 for inhibiting N-formyl-kynurenine", "value": 7, "unit": "nM"}, {"measurement": "IC50", "setting": "IDO1 activity in SKOV3; read-out: IC50 for inhibiting kynurenine", "value": 7, "unit": "nM"}, {"measurement": "tumor growth inhibition", "setting": "L55 tumors; 75 mg/kg twice daily oral, absence of hPBMCs, versus vehicle without PBMCs", "value": "did not result in significant tumor growth inhibition"}, {"measurement": "tolerability (body weight)", "setting": "L55 tumors; 75 mg/kg twice daily oral", "value": "No significant tolerability issues"}, {"measurement": "IC50", "setting": "His6-IDO1", "value": "< 1500 nM and 33 nM"}]}, {"compound": "C[C@H](NC(=O)c1ccc(F)cc1)c1ccc2c(c1)CCN2C(=O)C1CCOCC1", "note": "(single isomer, unassigned; isomer 2) [Example 1B]", "values": [{"measurement": "IC50", "setting": "His6-IDO1", "value": "< 1500", "unit": "nM"}]}, {"compound": "LY3300054: an antibody that binds human PD-L1 (SEQ ID NO: 1), comprising a light chain (LC) and a heavy chain (HC)", "values": [{"measurement": "effect on tumor growth", "setting": "L55 tumors; 10 mg/kg intraperitoneal once a week for 4 weeks, with hPBMCs, versus vehicle", "value": "statistically significant tumor growth inhibition"}, {"measurement": "change in tumor volume (% T/C)", "setting": "L55 tumors; 10 mg/kg intraperitoneal once a week, with hPBMCs, day 37, versus vehicle lacking PBMCs", "value": 75.7, "unit": "%"}, {"measurement": "tolerability (body weight)", "setting": "L55 tumors; 10 mg/kg intraperitoneal once a week", "value": "No significant tolerability issues"}]}]}
